The numbers were not newly measured in patent US20160287532A1 (SignPath Pharma Inc., priority 2015, published 2016), which cites them from elsewhere.

Like-named read-outs stand apart in the source and are kept apart here.

Data set [1] concerns IL-8. The settings on record: 20 μM curcumin.
A further data set relates to MMP-2. The settings on record: MDA-MB-231 cells.
The test system of data set [2] is IL-8. The settings on record: viral induced ARDS mouse model.
Data set [3] deals with MMP-9. The settings on record: chondrocytes.
Data set [4] relates to MMP-3. The settings on record: human astroglioma cells.
The test system of the next data set is MCP-1. The settings on record: viral induced ARDS mouse model.
A further data set deals with IL-2. The settings on record: splenic T lymphocytes.
The test system of data set [5] is MMP-3.
In data set [6] the target is T1, MMP-9 (Homo sapiens, UniProt P14780).
T1 construct: endogenous in cells; host or cells: human gastric epithelial cells infected with Helicobacter pylori
The settings on record: helicobacter pylori infected cells; dose dependent.

For data set [7], the system named is type II collagen-induced arthritis. The settings on record: oral, mice; dose dependent manner.
Data set [8] deals with T2, MMP-3 (Homo sapiens, UniProt P08254).
T2 construct: endogenous in cells; host or cells: IL-1β stimulated chondrocytes
The settings on record: IL-1β stimulated chondrocytes.

The next data set has as its system COX2. Conditions: chondrocytes.
The test system of data set [9] is MMP-3. Conditions: oral, mice; dose dependent manner.
Another data set has as its system TNF-α. Conditions: rats with non-bacterial prostatitis.
In a further data set the test system is SOX9. Conditions: IVD cells of patients with acute spinal injury.
Data set [10] deals with MMP-9. The settings on record: MDA breast cancer cell line.

T2 sequence (P08254 100-477): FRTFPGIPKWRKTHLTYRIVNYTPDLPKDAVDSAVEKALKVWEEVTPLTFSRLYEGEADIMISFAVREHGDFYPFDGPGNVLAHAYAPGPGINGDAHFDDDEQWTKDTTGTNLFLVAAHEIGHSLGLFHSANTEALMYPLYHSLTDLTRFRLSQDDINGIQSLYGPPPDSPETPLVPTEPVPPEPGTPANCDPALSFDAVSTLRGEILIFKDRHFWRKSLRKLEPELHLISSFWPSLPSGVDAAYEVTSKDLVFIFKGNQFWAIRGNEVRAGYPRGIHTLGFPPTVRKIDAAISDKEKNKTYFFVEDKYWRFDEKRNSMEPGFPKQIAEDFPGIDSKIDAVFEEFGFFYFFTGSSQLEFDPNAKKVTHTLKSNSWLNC
T1 sequence (P14780 94-707): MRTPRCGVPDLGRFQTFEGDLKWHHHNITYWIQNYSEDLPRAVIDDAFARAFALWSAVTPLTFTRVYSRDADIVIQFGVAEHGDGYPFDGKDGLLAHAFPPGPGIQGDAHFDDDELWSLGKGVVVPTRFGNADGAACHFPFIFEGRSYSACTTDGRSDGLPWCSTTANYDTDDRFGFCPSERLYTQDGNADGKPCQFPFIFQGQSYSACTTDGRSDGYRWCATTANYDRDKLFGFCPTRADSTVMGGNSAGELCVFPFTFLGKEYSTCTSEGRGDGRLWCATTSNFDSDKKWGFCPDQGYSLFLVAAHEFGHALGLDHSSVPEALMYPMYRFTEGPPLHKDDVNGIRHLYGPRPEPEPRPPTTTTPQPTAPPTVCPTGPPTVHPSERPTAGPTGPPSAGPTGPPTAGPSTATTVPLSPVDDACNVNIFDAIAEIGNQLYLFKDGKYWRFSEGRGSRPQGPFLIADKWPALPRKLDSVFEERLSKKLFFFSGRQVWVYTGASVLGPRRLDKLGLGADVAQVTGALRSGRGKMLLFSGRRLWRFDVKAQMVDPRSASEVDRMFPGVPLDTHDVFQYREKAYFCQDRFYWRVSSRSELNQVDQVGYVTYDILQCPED

On to `COc1cc(/C=C/C(=O)/C=C(O)/C=C/c2ccc(O)c(OC)c2)ccc1O` [curcumin, 1,7-bis(4-hydroxy-3-methoxyphenyl)-1,6-heptadiene-3,5-dione], for which the IL-8 expression reduced in the data set with IL-8 [1] is on record as 50%. Besides, the MMP-2 entry in the data set with MMP-2 is “down-regulated”. In addition, the “expression of IL-8” value in the data set on IL-8 [2] was “reduced”. Moreover, the MMP-9 regulation entry in the data set on MMP-9 [3] is given as “down regulation”. Also, the MMP-3 result in the data set on MMP-3 [4] was “Suppression”. Further, the “expression of MCP-1” value in the data set on MCP-1 is on record as “reduced”. In addition, in the data set with IL-2, the “expression of IL-2” value was “inhibited”. For the same compound, the MMP-3 expression reduced is 70% in the data set with MMP-3 [5] (10 μM curcumin) and 75% in the data set on MMP-3 [5] (20 μM curcumin). Also, the MMP-9 activity entry on MMP-9 [6] is recorded as “suppressed”. The “type II collagen-induced arthritis” value in data set [7] is given as “suppress”. Besides, the MMP-3 activity result on MMP-3 [8] is on record as “inhibited”. Moreover, in the data set on COX2, the COX2 regulation result is given as “down regulation”. In addition, the “MMP-3 expression in joints” value in the data set with MMP-3 [9] is recorded as “suppress”. Moreover, the TNF-α expression result with TNF-α is “reduced”. Moreover, the “IL-1 inhibition of SOX9 expression” value in the data set with SOX9 is given as “reversed”. The MMP-9 result with MMP-9 [10] was “inhibited”.
